This is an account of results in US20230382925A1, “MODULATORS OF CYSTIC FIBROSIS TRANSMEMBRANE CONDUCTANCE REGULATOR” (VERTEX PHARMACEUTICALS INCORPORATED, priority 2020, published 2023).

For the test, the target named is CFTR (Homo sapiens, UniProt P13569). The experiment in a line: Membrane Potential Dye, Enteroid Assay A. Conditions: for EC50: read-out: Ent. A EC50. It counts as cell-based. Here is the method:
Base medium (ADF+++) consisted of Advanced […], 2 mM Glutamax, 10 mM HEPES, 1 μg/mL penicillin/streptomycin.
Intestinal enteroid maintenance medium (IEMMN) consisted of ADF+++, 1× B27 supplement, 1× N2 supplement, 1.25 mM N-acetyl cysteine, 10 mM Nicotinamide, 50 ng/mL hEGF, 10 nM Gastrin, 1 μg/mL hR-spondin-1, 100 ng/mL hNoggin, TGF-b type 1 inhibitor A-83-01, 100 μg/mL Primocin, 10 μM P38 MAPK inhibitor SB202190.
Bath 1 Buffer consisted of 1 mM MgCl2, 160 mM NaCl, 4.5 mM KCl, 10 mM HEPES, 10 mM Glucose, 2 mM CaCl2).
Chloride Free Buffer consisted of 1 mM Magnesium Gluconate, 2 mM Calcium Gluconate, 4.5 mM Potassium Gluconate, 160 mM Sodium Gluconate, 10 mM HEPES, 10 mM Glucose.
Bath 1 Dye Solution consisted of Bath 1 Buffer, 0.04% Pluronic F127, 20 μM Methyl Oxonol, 30 μM CaCCinh-A01, 30 μM Chicago Sky Blue.
Chloride Free Dye Solution consisted of Chloride Free Buffer, 0.04% Pluronic F127, 20 μM Methyl Oxonol, 30 μM CaCCinh-A01, 30 μM Chicago Sky Blue.
Chloride Free Dye Stimulation Solution consisted of Chloride Free Dye Solution, 10 μM forskolin, 100 μM IBMX, and 300 nM Compound III.
Human intestinal epithelial enteroid cells were obtained from the Hubrecht Institute for Developmental Biology and Stem Cell Research, Utrecht, The Netherlands and expanded in T-Flasks as previously described (Dekkers J F, Wiegerinck C L, de Jonge H R, Bronsveld I, Janssens H M, de Winter-de Groot K M, Brandsma A M, de Jong N W M, Bijvelds M J C, Scholte B J, Nieuwenhuis E E S, van den Brink S, Clevers H, van der Ent C K, Middendorp S and M Beekman J M. A functional CFTR assay using primary cystic fibrosis intestinal organoids. Nat Med. 2013 July; 19(7):939-45.).
3. Enteroid Cell Harvesting and Seeding
Cells were recovered in cell recovery solution, collected by centrifugation at 650 rpm for 5 min at 4° C., resuspended in TrypLE and incubated for 5 min at 37° C. Cells were then collected by centrifugation at 650 rpm for 5 min at 4° C. and resuspended in IEMM containing 10 μM ROCK inhibitor (RI). The cell suspension was passed through a 40 μm cell strainer and resuspended at 1×10^6 cells/mL in IEMM containing 10 μM RI. Cells were seeded at 5000 cells/well into multi-well plates and incubated for overnight at 37° C., 95% humidity and 5% CO2 prior to assay.
4. Membrane Potential Dye, Enteroid Assay A
Enteroid cells were incubated with test compound in IEMM for 18-24 hours at 37° C., 95% humidity and 5% CO2. […] Briefly, cells were washed 5 times in Bath 1 Buffer. Bath 1 Dye Solution was added, and the cells were incubated for 25 min at room temperature. Following dye incubation, cells were washed 3 times in Chloride Free Dye Solution. Chloride transport was initiated by addition of Chloride Free Dye Stimulation Solution and the fluorescence signal was read for 15 min. […] Chloride transport was then expressed as a percentage of the chloride transport following treatment with 3 μM N-[(6-amino-2-pyridyl)sulfonyl]-6-(3-fluoro-5-isobutoxy-phenyl)-2-[(4S)-2,2,4-trimethylpyrrolidin-1-yl]pyridine-3-carboxamide, 3 μM (R)-1-(2,2-difluorobenzo[d][1,3]dioxol-5-yl)-N-(1-(2,3-dihydroxypropyl)-6-fluoro-2-(1-hydroxy-2-methylpropan-2-yl)-1H-indol-5-yl)cyclopropanecarboxamide and 300 nM acute N-[2,4-bis(1,1-dimethylethyl)-5-hydroxyphenyl]-1,4-dihydro-4-oxoquinoline-3-carboxamide triple combination control (% Activity).

Sequence of CFTR (P13569 with tags, fused parts or gaps DEL508-508): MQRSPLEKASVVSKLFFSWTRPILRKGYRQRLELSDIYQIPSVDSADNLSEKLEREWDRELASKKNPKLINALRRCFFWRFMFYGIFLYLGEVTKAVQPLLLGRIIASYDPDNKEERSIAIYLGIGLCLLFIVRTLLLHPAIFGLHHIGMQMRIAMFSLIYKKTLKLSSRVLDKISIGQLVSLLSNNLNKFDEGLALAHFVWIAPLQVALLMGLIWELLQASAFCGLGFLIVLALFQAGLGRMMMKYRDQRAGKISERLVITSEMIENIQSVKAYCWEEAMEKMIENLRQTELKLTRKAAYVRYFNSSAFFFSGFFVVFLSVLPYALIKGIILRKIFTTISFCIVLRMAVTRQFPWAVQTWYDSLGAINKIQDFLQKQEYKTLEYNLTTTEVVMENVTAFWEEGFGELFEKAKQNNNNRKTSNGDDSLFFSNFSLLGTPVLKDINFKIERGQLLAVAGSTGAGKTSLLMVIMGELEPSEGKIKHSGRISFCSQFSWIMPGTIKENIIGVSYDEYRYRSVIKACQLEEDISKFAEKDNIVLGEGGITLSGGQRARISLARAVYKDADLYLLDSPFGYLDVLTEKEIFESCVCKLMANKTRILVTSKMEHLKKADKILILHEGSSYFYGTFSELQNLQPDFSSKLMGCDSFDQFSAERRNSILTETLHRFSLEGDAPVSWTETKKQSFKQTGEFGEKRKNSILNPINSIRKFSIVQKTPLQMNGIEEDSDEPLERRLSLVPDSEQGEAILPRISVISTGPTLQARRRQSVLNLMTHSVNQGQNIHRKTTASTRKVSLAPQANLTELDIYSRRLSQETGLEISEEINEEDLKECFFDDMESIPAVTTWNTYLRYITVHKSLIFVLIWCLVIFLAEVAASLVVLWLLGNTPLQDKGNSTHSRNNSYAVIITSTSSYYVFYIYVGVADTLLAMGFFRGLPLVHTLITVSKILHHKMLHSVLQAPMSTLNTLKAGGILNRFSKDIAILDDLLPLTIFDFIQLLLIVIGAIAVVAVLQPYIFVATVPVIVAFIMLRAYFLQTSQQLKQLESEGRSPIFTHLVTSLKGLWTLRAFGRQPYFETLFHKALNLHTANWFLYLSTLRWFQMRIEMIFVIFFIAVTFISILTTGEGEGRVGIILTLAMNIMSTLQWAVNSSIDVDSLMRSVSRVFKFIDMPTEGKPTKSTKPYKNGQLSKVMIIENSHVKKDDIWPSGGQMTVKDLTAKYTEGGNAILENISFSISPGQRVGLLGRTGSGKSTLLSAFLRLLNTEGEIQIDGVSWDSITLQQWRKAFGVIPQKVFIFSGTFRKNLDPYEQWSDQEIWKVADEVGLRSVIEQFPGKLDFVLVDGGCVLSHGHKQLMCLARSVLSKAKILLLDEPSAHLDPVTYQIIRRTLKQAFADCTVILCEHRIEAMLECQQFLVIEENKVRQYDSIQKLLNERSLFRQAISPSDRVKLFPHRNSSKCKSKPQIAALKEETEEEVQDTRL

With `COC(=O)N1CCC2(CC1)CC(N1C(=O)c3cccc(c3)S(=O)(=O)Nc3cc(cc(-c4c(C)cccc4C)n3)OC[C@H]1CC(C)C)C2` [Compound 196, Methyl 2-[(11R)-6-(2,6-dimethylphenyl)-11-isobutyl-2,2,13-trioxo-9-oxa-2λ^6-thia-3,5,12-triazatricyclo[12.3.1.14,8]nonadeca-1(18),4(19),5,7,14,16-hexaen-12-yl]-7-azaspiro[3.5]nonane-7-carboxylate], the “Ent. A Max Activity (%)” value is given as “+++ (+++ is >60%)” and the EC50 was less than 1000 nM.
In the same order, the values of `Cc1cccc(C)c1-c1cc2nc(n1)NS(=O)(=O)c1cccc(c1)C(=O)N(C1CC3(CCN(CCC(C)(C)C)CC3)C1)[C@H](CC(C)C)CO2` [Compound 340] are “+++ (+++ is >60%)” and less than 1000 nM.
For the compound `Cc1cccc(C)c1-c1cc2nc(n1)NS(=O)(=O)c1cccc(c1)C(=O)N(C1CC3(CC3)C1)[C@@H](CC1(C(F)(F)F)CC1)CO2` [Compound 351], the “Ent. A Max Activity (%)” value was “+ (+ is <300%)” and the EC50 was less than 1000 nM.
In the same order, the values of `CC(C)C[C@@H]1COc2cc(-c3ccccc3C(C)C)nc(n2)NS(=O)(=O)c2cccc(c2)C(=O)N1C1CC2(CCN(C)CC2)C1` [Compound 11, (11R)-11-Isobutyl-6-(2-isopropylphenyl)-12-(7-methyl-7-azaspiro[3.5]nonan-2-yl)-2,2-dioxo-9-oxa-2 λ6-thia-3,5,12,19-tetrazatricyclo[12.3.1.14,8]nonadeca-1(18),4,6,8(19),14,16-hexaen-13-one] are “+++ (+++ is >60%)” and less than 1000 nM.
In the same order, the values of `Cc1cccc(C)c1-c1cc2nc(n1)NS(=O)(=O)c1cccc(c1)C(=O)N([C@H]1C[C@@H](O)C1)[C@H](CC(C)C)CO2` (single isomer, unassigned) [Compound 43] are “+++ (+++ is >60%)” and 1000 to 3000 nM.
Turning to `Cc1cccc(C)c1-c1cc2nc(n1)NS(=O)(=O)c1cccc(c1)C(=O)N(C1CC3(CCN(C)CC3)C1)C[C@@H](C)O2` [Compound 179, (10R)-6-(2,6-Dimethylphenyl)-10-methyl-12-(7-methyl-7-azaspiro[3.5]nonan-2-yl)-2,2-dioxo-9-oxa-2λ^6-thia-3,5,12,19-tetrazatricyclo[12.3.1.14,8]nonadeca-1(18),4(19),5,7,14,16-hexaen-13-one], the “Ent. A Max Activity (%)” value is recorded as “+++ (+++ is >60%)” and the EC50 is 1000 to 3000 nM.
In the same order, the values of `CC(C)C[C@@H]1COc2cc(C3CCCCC3(C)C)nc(n2)NS(=O)(=O)c2cccc(c2)C(=O)N1C1CC2(CCNCC2)C1` (stereo partly drawn) [Compound 399] are “+++ (+++ is >60%)” and less than 1000 nM.
As to `Cc1cccc(C)c1-c1cc2nc(n1)NS(=O)(=O)c1cccc(c1)C(=O)N([C@H]1C[C@]3(CCN(C(C)C)C3)C1)[C@H](CC(C)C)CO2` (single isomer, unassigned) [Compound 34], the “Ent. A Max Activity (%)” value is recorded as “+++ (+++ is >60%)” and the EC50 was less than 1000 nM.
In the same order, the values of `COC(=O)N1CCC2(CC1)CC(N1C[C@@H](C)Oc3cc(-c4c(C)cccc4C)nc(n3)NS(=O)(=O)c3cccc(c3)C1=O)C2` [Compound 312] are “+++ (+++ is >60%)” and less than 1000 nM.
On to `COC(=O)N1CCCC2(CC(N3C(=O)c4cccc(c4)S(=O)(=O)Nc4nc(cc(-c5c(C)cccc5C)n4)OC[C@H]3CC(C)C)C2)C1` (stereo partly drawn) [Compound 327], for which the “Ent. A Max Activity (%)” value is “+++ (+++ is >60%)” and the EC50 is less than 1000 nM.
Take `CC(C)C[C@@H]1COc2cc(-c3ccccc3-c3ccccc3)nc(n2)NS(=O)(=O)c2cccc(c2)C(=O)N1C1CC2(CCN(C)CC2)C1` [Compound 471]: the “Ent. A Max Activity (%)” value is “+++ (+++ is >60%)” and the EC50 is less than 1000 nM.
In the same order, the values of `COC(=O)N1CCC2(CC1)CC(N1C(=O)c3cccc(c3)S(=O)(=O)Nc3nc(cc(C4CCCCC4(C)C)n3)OC[C@H]1CC(C)C)C2` (stereo partly drawn) [Compound 396] are “++ (++ is 30-60%)” and less than 1000 nM.
In the same order, the values of `Cc1cccc(C)c1-c1cc2nc(n1)NS(=O)(=O)c1cccc(c1)C(=O)N(C1CCOCC1)CCO2` [Compound 439] are “+++ (+++ is >60%)” and 3000 to 30000 nM.
In the same order, the values of `Cc1cccc(C)c1-c1cc2nc(n1)NS(=O)(=O)c1cccc(c1)C(=O)N(C1CC(C(=O)O)C1)[C@H](CC(C)C)CO2` (stereo partly drawn) [Compound 35, 3-[(11R)-6-(2,6-dimethylphenyl)-11-isobutyl-2,2,13-trioxo-9-oxa-2λ^6-thia-3,5,12,19-tetrazatricyclo[12.3.1.14,8]nonadeca-1(18),4(19),5,7,14,16-hexaen-12-yl]cyclobutanecarboxylic acid] are “+++ (+++ is >60%)” and 3000 to 30000 nM.
As for `COC(=O)N1CCC2(CC(N3C(=O)c4cccc(c4)S(=O)(=O)Nc4nc(cc(-c5c(C)cccc5C)n4)OC[C@H]3CC(C)C)C2)C1` (stereo partly drawn) [Compound 325], the “Ent. A Max Activity (%)” value is “+++ (+++ is >60%)” and the EC50 is less than 1000 nM.
In the same order, the values of `Cc1cccc(C)c1-c1cc2nc(n1)NS(=O)(=O)c1cccc(c1)C(=O)N(C1CC3(CC3)C1)C(CC(F)(F)F)CO2` (single isomer, unassigned) [Compound 109, 6-(2,6-Dimethylphenyl)-2,2-dioxo-12-spiro[2.3]hexan-5-yl-11-(2,2,2-trifluoroethyl)-9-oxa-2λ^6-thia-3,5,12,19-tetrazatricyclo[12.3.1.14,8]nonadeca-1(18),4(19),5,7,14,16-hexaen-13-one] are “++ (++ is 30-60%)” and 1000 to 3000 nM.
Turning to `COC(=O)N1CCCC2(CC(N3C(=O)c4cccc(c4)S(=O)(=O)Nc4nc(cc(-c5c(C)cccc5C)n4)OC[C@H]3CC(C)C)C2)C1` (stereo partly drawn) [Compound 324], the “Ent. A Max Activity (%)” value was “+++ (+++ is >60%)” and the EC50 is less than 1000 nM.
In the same order, the values of `Cc1cccc(C)c1-c1cc2nc(n1)NS(=O)(=O)c1cccc(c1)C(=O)N(C1CCCC1)[C@H](CC(C)C)CO2` [Compound 30, (11R)-12-Cyclopentyl-6-(2,6-dimethylphenyl)-11-isobutyl-2,2-dioxo-9-oxa-2λ^6-thia-3,5,12,19-tetrazatricyclo[12.3.1.14,8]nonadeca-1(18),4(19),5,7,14,16-hexaen-13-one] are “+++ (+++ is >60%)” and less than 1000 nM.
Consider `Cc1cccc(C)c1-c1cc2nc(n1)NS(=O)(=O)c1cccc(c1)C(=O)N(C1CC3(CCCC3)C1)[C@H](CC(C)C)CO2` [Compound 339], for which the “Ent. A Max Activity (%)” value is listed as “+++ (+++ is >60%)” and the EC50 is less than 1000 nM.
In the same order, the values of `CC(C)C[C@@H]1COc2cc(-c3ccccc3C(C)C)nc(n2)NS(=O)(=O)c2cccc(c2)C(=O)N1C1CC2(CCN(C(=O)OC(C)(C)C)CC2)C1` [Compound 12, tert-Butyl 2-[(11R)-11-isobutyl-6-(2-isopropylphenyl)-2,2,13-trioxo-9-oxa-2λ^6-thia-3,5,12,19-tetrazatricyclo[12.3.1.14,8]nonadeca-1(18),4,6,8(19),14,16-hexaen-12-yl]-7-azaspiro[3.5]nonane-7-carboxylate] are “++ (++ is 30-60%)” and less than 1000 nM.
In the same order, the values of `Cc1cccc(C)c1-c1cc2nc(n1)NS(=O)(=O)c1cccc(c1)C(=O)N(C1CC(C(=O)N3CCN(C)CC3)C1)[C@H](CC(C)C)CO2` (stereo partly drawn) [Compound 36, (11R)-6-(2,6-dimethylphenyl)-11-isobutyl-12-[3-(4-methylpiperazine-1-carbonyl)cyclobutyl]-2,2-dioxo-9-oxa-2λ^6-thia-3,5,12,19-tetrazatricyclo[12.3.1.14,8]nonadeca-1(18),4(19),5,7,14,16-hexaen-13-one] are “+++ (+++ is >60%)” and less than 1000 nM.

As a reminder, the EC50 is the concentration giving half of the maximal effect.
